Source: patent publication US10321683B2, “Insecticidal, miticidal, nematicidal, molluscicidal, microbicidal, or bactericidal composition and method for controlling pest” (NISSAN CHEMICAL INDUSTRIES, LTD., priority 2014, dated 2019)

Legend:
[1] = tested on: fourth instar larvae of cotton bollworms; assay: Efficacy test for cotton bollworm (cabbage leaf dip); type: in vivo, Cotton bollworm (Helicoverpa armigera); conditions: six days after the treatment
Experimental: Each of Compound (1) or Compound (2) and the compounds listed in Table 1 was formulated into a 10% emulsifiable concentrate (some compound was formulated into a 25% wettable powder). The formulations were diluted with water containing a spreading agent to prepare chemical solutions of given concentrations. Cabbage leaves were dipped in the chemical solutions for 10 seconds. The dipped cabbage leaves were transferred on filter papers placed in 7 cm petri dishes with one leaf per one petri dish, and the leaves were air dried. After the air drying was completed, the seven fourth instar larvae of cotton bollworms were placed in each petri dish, and then, the petri dishes were placed in an incubator at 25° C. Six days after the treatment, the numbers of dead larvae were checked, and the percentages of dead insects were calculated according to the calculating equation below. Note that the tests were conducted in duplicate. The percentage of dead insects (%)=the number of dead insects/the number of tested insects×100
(§1) To each concentration of chemical solutions, the synergistic effect was calculated from the percentage of dead insects by using Colby's method (Colby S. R. 1976, Weeds 15, 20-22). The calculation method was as follows. E=X+Y−XY/100
(§2) X: an observed value at an x concentration of Chemical A (the percentage of dead insects)
(§3) Y: an observed value at a y concentration of Chemical B (the percentage of dead insects)
(§4) E: the percentage of dead insects expected at the time of a mixed treatment with Chemical A and Chemical B.
(§5) If the observed value was larger than the expected value, there was a synergistic effect; if the expected value was larger than the observed value, there was an antagonist effect; and if the observed value and the expected value were same, there was an additive effect.

[2] = tested on: third instar larvae of common cutworms; assay: Efficacy test for common cutworm (cabbage leaf dip); type: in vivo, Common cutworm (Spodoptera litura); conditions: six days after the treatment
Experimental: Each of Compound (1) or Compound (2) and the compounds listed in Table 1 was formulated into a 10% emulsifiable concentrate (some compound was formulated into a 25% wettable powder). The formulations were diluted with water containing a spreading agent to prepare chemical solutions of given concentrations. Cabbage leaves were dipped in the chemical solutions for 10 seconds. The dipped cabbage leaves were transferred on filter papers placed in 7 cm petri dishes with one leaf per one petri dish, and the leaves were air dried. After the air drying was completed, the seven third instar larvae of common cutworms were placed in each petri dish and then the petri dishes were placed in an incubator at 25° C. Six days after the treatment, the numbers of dead larvae were checked, and the percentages of dead insects were calculated according to the calculating equation below. Note that the tests were conducted in duplicate. The percentage of dead insects (%)=the number of dead insects/the number of tested insects×100
as §1, §2, §3, §4, §5

varroa mites = assay: Efficacy test for varroa mite (coated screw bottle); type: in vivo; conditions: 100 μg/tube; 24 hours after placing
Experimental: The Compound (1) or Compound (2) was adjusted to a given concentration with acetone. After the adjustment, 300 μl of each of the prepared solutions was poured into a 20 ml screw bottle. The solvent was volatilized as the inner surface of the bottle was uniformly coated with the solution, and then the bottle was stored in a cool and dark place overnight. To obtain varroa mites, a blood comb was taken out from a beehive of honey bees on the day before placing of mites, and pupae having varroa mites were taken and placed in a petri dish. The petri dish was stored in an incubator at 34° C. overnight under the total darkness condition, and then only surviving varroa mites were collected. The collected varroa mites were placed in each of the screw bottles that were treated with the above-described chemicals, and the screw bottles were closed with caps. After three hours, the pupae of honey bees were placed in the screw bottles; the screw bottles were closed with caps again, and were stored in an incubator at 34° C. under the total darkness condition. The number of dead insects 24 hours after placing was checked, and the percentages of dead insects were calculated according to the calculating equation below. Note that the tests were conducted in quadruplicate of three in one plot. The percentage of dead insects (%)=the number of dead insects/the number of tested insects×100

[3] = tested on: melon thrips female adult insects; assay: Efficacy test for melon thrips female adult insect (leaf disk spray); type: in vivo, Melon thrips (Thrips palmi); conditions: 2 days after spraying
Experimental: (§6) Each of Compound (1) or Compound (2) and the compounds listed in Table 1 was formulated into a 10% emulsifiable concentrate. The formulations were diluted with water to prepare chemical solutions of given concentrations. A styrol cup (having the diameter of the lid of 7.5 cm, and the height of 4 cm) was filled with tap water, and a lid having a hole in its center was placed on the styrol cup, and a filter paper was placed on the lid to absorb tap water. An absorbent cotton (5 cm×5 cm) wetted with tap water was placed on the filter paper, and a leaf disk (having the diameter of 1.7 cm) made of a cucumber leaf was placed on the absorbent cotton. The ten melon thrips female adult insects were placed on the leaf disk. Each of the test containers was treated with a spray solution as was uniformly sprayed by using a spraying apparatus (2.5 ml/cup). Examinations were conducted 2 days after spraying, and the percentages of dead insects were calculated according to the calculating equation below. Note that the tests were conducted in duplicate. The percentage of dead insects (%)=the number of dead insects/the number of tested insects×100
To each concentration of chemical solutions, the synergistic effect was calculated from the percentage of dead insects by using Colby's method (Colby S. R. 1976, Weeds 15, 20-22). The calculation method was as follows. E=X+Y−XY/100 […]

[4] = tested on: Western flower thrips larva; assay: Efficacy test for Western flower thrips larva (leaf disk spray); type: in vivo, Western flower thrips (Frankliniella occidentalis); conditions: 1 day after spraying
Experimental: A styrol cup (having the diameter of the lid of 7.5 cm, and the height of 4 cm) was filled with tap water, and a lid having a hole in its center was placed on the styrol cup, and a leaf disk (having the diameter of 1.7 cm) made of a common bean leaf was placed on the lid. Suitable amounts of eggs of Western flower thrips were placed on the leaf disk, and were controlled in a thermostatic chamber for 24 hours to be hatched. Each of Compound (1) or Compound (2) and the compounds listed in Table 1 was formulated into a 10% emulsifiable concentrate. The formulations were diluted with water to prepare chemical solutions of given concentrations. Each of the test containers was treated with a spray solution as was uniformly sprayed by using a spraying apparatus (2.5 ml/cup). Examinations were conducted 1 day after spraying, and the percentages of dead insects were calculated according to the calculating equation below. Note that the tests were conducted in duplicate. The percentage of dead insects (%)=the number of dead insects/the number of tested insects×100
as §1, §2, §3, §4, §5

[5] = tested on: sweetpotato whitefly adult insects; assay: Efficacy test for sweetpotato whitefly biotype B (leaf disk spray); type: in vivo, Sweetpotato whitefly (Bemisia tabaci) biotype B; conditions: 5 days after spraying
Experimental: as §6, with “of 3” for “of 1.7”, “a common bean” for “a cucumber”, “cotton.” for “cotton. The ten melon thrips female adult insects were placed on the leaf disk.”, “ml/cup). The 20 sweetpotato whitefly adult insects were placed on the leaf disk, and a mesh lid was placed over the container to prevent escape of the insects.” for “ml/cup).”, “conducted 5” for “conducted 2”, “insects×100 To each concentration of chemical solutions, the synergistic effect was calculated from the percentage of dead insects by using Colby's method (Colby S. R. […], Weeds 15, 20-22). […]” for “insects×100”

Compound: Cc1cc(C2=NOC(c3cc(Cl)cc(Cl)c3)(C(F)(F)F)C2)ccc1C(=O)NCC(=O)NCC(F)(F)F (stereo not drawn) [Compound (1), 4-[5-(3,5-dichlorophenyl)-4,5-dihydro-5-(trifluoromethyl)isoxazole-3-yl]-2-methyl-N-[2-oxo-2-[(2,2,2-trifluoroethyl)amino]ethyl]benzamide]
- Percentage of Dead Insect (%) Observed Value ([1]; 0.125 ppm): 28.6%
- Percentage of Dead Insect (%) Observed Value ([2]; 0.017 ppm): 28.6%
- Percentage of Dead Insect (%) (varroa mites): 100%

Compound: CO/N=C\NC(=O)c1ccc(C2=NOC(c3cc(Cl)cc(Cl)c3)(C(F)(F)F)C2)cc1C (stereo not drawn) [Compound (2), (Z)-4-[5-(3,5-dichlorophenyl)-5-trifluoromethyl-4,5-dihydroisoxazole-3-yl]-N-(methoxyiminomethyl)-2-methylbenzamide]
- Percentage of Dead Insect (%) Observed Value ([1]; 0.125 ppm): 35.7%
- Percentage of Dead Insect (%) Observed Value ([2]; 0.017 ppm): 35.7%
- Percentage of Dead Insect (%) Observed Value ([2]; Table 4, 0.025 ppm): 35.7%
- Percentage of Dead Insect (%) Observed Value ([2]; Table 5, 0.025 ppm): 35.7%
- Percentage of Dead Insect (%) Observed Value ([2]; Table 6, 0.025 ppm): 35.7%
- Percentage of Dead Insect (%) Observed Value ([2]; Table 7, 0.005 ppm): 14.3%
- Percentage of Dead Insect (%) Observed Value ([2]; Table 8, 0.005 ppm): 14.3%
- Percentage of Dead Insect (%) Observed Value ([3]; 5 ppm): 42.1%
- Percentage of Dead Insect (%) (varroa mites): 100%
- Percentage of Dead Insect (%) Observed Value ([4]; 1 ppm): 29.5%
- Percentage of Dead Insect (%) Observed Value ([5]; 5 ppm): 36.6%

Compound: CC1(C)[C@H](C(=O)O[C@H](C#N)c2cccc(Oc3ccccc3)c2)[C@@H]1/C=C(\Cl)C(F)(F)F [Compound ar, gamma-cyhalothrin, reference compound]
- Percentage of Dead Insect (%) Observed Value ([2]; 0.5 ppm): 35.7%

Compound: N#Cc1ccc(CC(=NNC(=O)Nc2ccc(OC(F)(F)F)cc2)c2cccc(C(F)(F)F)c2)cc1 (mixture of isomers) [Compound dc, metaflumizone, reference compound]
- Percentage of Dead Insect (%) Observed Value ([2]; Table 6, 1.7 ppm): 53.8%

Compound: O=C1C=C(N(Cc2ccc(Cl)nc2)CC(F)F)CO1 [Compound ci, flupyradifurone, reference compound]
- Percentage of Dead Insect (%) Observed Value ([5]; 25 ppm): 40.5%

Compound: CCc1nc2cc(C)c(Oc3ccc(OC(F)(F)F)cc3)cc2c(OC(=O)OC)c1C [Compound bx, flometoquin, reference compound]
- Percentage of Dead Insect (%) Observed Value ([3]; 2.5 ppm): 52.6%

Compound: CNC(=O)c1cc(Cl)cc(C)c1NC(=O)c1cc(Br)nn1-c1ncccc1Cl [Compound aa, chlorantraniliprole, reference compound]
- Percentage of Dead Insect (%) Observed Value ([2]; 0.083 ppm): 21.4%

Compound: CNC(=O)c1cc(C#N)cc(C)c1NC(=O)c1cc(Br)nn1-c1ncccc1Cl [Compound al, cyantraniliprole, reference compound]
- Percentage of Dead Insect (%) Observed Value ([1]; 0.25 ppm): 42.9%

Compound: O=C(NC(=O)c1c(F)cccc1F)Nc1ccc(Oc2ccc(C(F)(F)F)cc2Cl)cc1F [Compound ce, flufenoxuron]
- Percentage of Dead Insect (%) Observed Value ([4]; 20 ppm): 27.2%

Compound: spinosad [Compound em, reference compound]
- Percentage of Dead Insect (%) Observed Value ([2]; Table 4, 32 ppm): 60.0%

Compound: CC(NC(=O)c1cc(Cl)cc(Br)c1NC(=O)c1cc(Br)nn1-c1ncccc1Cl)C1CC1 (stereo not drawn) [Compound am, cyclaniliprole, reference compound]
- Percentage of Dead Insect (%) Observed Value ([2]; Table 7, 0.17 ppm): 7.7%

Compound: Cc1cc(C(F)(C(F)(F)F)C(F)(F)F)ccc1NC(=O)c1cccc(I)c1C(=O)NC(C)(C)CS(C)(=O)=O [Compound ca, flubendiamide, reference compound]
- Percentage of Dead Insect (%) Observed Value ([1]; 0.025 ppm): 35.7%

Compound: Cc1c(COC(=O)[C@@H]2[C@H](/C=C(\Cl)C(F)(F)F)C2(C)C)cccc1-c1ccccc1 (racemic) [Compound q, bifenthrin]
- Percentage of Dead Insect (%) Observed Value ([4]; 20 ppm): 8.5%

Compound: spinetoram [Compound el, reference compound]
- Percentage of Dead Insect (%) Observed Value ([2]; Table 5, 4.4 ppm): 78.6%

Compound: tetraniliprole [Compound ey, reference compound]
- Percentage of Dead Insect (%) Observed Value ([2]; Table 8, 1.7 ppm): 64.3%
